According to US10918585B2, “Anti-aging agent and anti-aging composition for skin” (SHOWA DENKO K.K., priority 2015, dated 2021):

Tests used:
collagen genes = test: Expression of collagen genes in normal human fibroblasts (quantitative real-time PCR, standardized to GAPDH); type: cell-based; conditions: NB1RGB cells, 24 hours
Procedure: (§1) The gene expression of collagen and elastin in normal human fibroblasts was examined. Further, it has been known that a decrease in expression level of collagen and elastin due to cellular aging causes wrinkles.
(§2) NB1RGB cells (purchased from Riken BioResource Center), which are normal human fibroblasts, were seeded in a plastic dish at a seeding density of 10000 cells/cm^2 and cultured in Dulbecco's Modified Eagle's medium (DMEM) (manufactured by Sigma-Aldrich Corporation) containing 10% fetal bovine serum for 24 hours. Thereafter, each inositol derivative of Examples 1 to 6 and Comparative Example 1 in a state of being dissolved in purified water was added to the medium at a final concentration of 0.01 w/v % and further cultured for 24 hours. […]
(§3) Next, total RNA was extracted from cells of each group to synthesize cDNA. Next, the expression levels of collagen genes and elastin genes in NB1RGB cells of each group were quantified by performing quantitative real-time PCR using the cDNA as a template. Further, the expression level of glyceraldehyde-3-phospahte dehydrogenase (GAPDH), which is a housekeeping gene, was quantified as an internal standard gene, and the expression levels of collagen genes and elastin genes were respectively standardized based on the expression level of the GAPDH genes in the NB1RGB cells of each group. […]

elastin genes = test: Expression of elastin genes in normal human fibroblasts (quantitative real-time PCR, standardized to GAPDH); type: cell-based; conditions: NB1RGB cells, 0.001 w/v % myo-inositol, 24 hours, purified water = 1.00
Procedure: as §1, §2, §3

## O[C@H]1[C@H](O)[C@@H](O)[C@H](O)[C@@H](O)[C@H]1O [myo-Inositol]
Collagen genes; 0.001 w/v % myo-inositol, standardized to GAPDH, purified water = 1.00
  Expression level of genes (relative value) Collagen: 0.54 relative value
Collagen genes; inositol derivatives 0.01 w/v %, myo-inositol 0.001 w/v %
  Expression of collagen genes compared to the purified water as a control (in words): a decrease in expression of collagen genes was shown
Elastin genes
  Expression level of genes (relative value) Elastin: 1.23 relative value
